This note sets out measurements from patent US20250228835A1, “PYRIDINYLOXYPYRIDINES AND RELATED COMPOUNDS AND THEIR USE IN TREATING MEDICAL CONDITIONS” (Rectify Pharmaceuticals, Inc., priority 2024, published 2025).

Structures are written as SMILES.

Broadly, the EC50 is the concentration needed to bring the measured effect to its halfway point.

Type in all cases: cell-based
The target of one assay is T1, ABCB4 WT (Homo sapiens, UniProt P21439).
T1 construct: expressed in transfected cells
Description: ABCB4 WT assay: HiBit protein expression. The settings on record: HEK-293 cells stably expressing HiBit-tagged ABCB4 WT; 24 h treatment; top concentration 30 μM; read-out: ABCB4 WT EC50, Emax. From the text: To assess activity against ABCB4, compounds were screened in an assay measuring protein expression, using cells transfected with cDNA encoding HiBit-tagged ABCB4 wild-type.
(§1) Described here is an assay for measuring the expression of the wild type of human ABCB4 (henceforth referred to as ABCB4 WT) and the use of this assay to measure the efficacy of compounds to increase the expression of ABCB4 WT. The assay was designed to characterize the efficacy and potency of compounds to increase the expression of ABCB4 WT by calculating an Emax and EC50 value. HEK-293 cells stably expressing ABCB4 WT (HEK-293/ABCB4 WT) were used for this assay and were maintained at 37° C. (5% CO2, humidified) in Dulbecco's Modified Eagle Medium (DMEM, Gibco product #12100) supplemented with 10% fetal bovine serum (Biosera product #FB-1058/500), 1% PenStrep (HDB product #15140-122), and 0.5 mg/mL puromycin (Gibco product #A11138-03). For the assay, the HEK-293/ABCB4 WT cells were seeded in white/opaque 384-well plates (Corning product #3570) at 10,000 cells/well in 20 μl growth medium and allowed to settle for 4 hours at 37° C. (5% CO2, humidified). Compound serial dilutions are prepared in DMSO as three hundred times (333×) the final concentration and using a dilution factor of 3 using Bravo (Agilent). After the four-hour incubation period, 60 nL of DMSO solutions are transferred to the assay plate.
(§2) Dose response curves include eleven doses with the top final concentration at 30 μM in 0.3% DMSO. Liquid handling is performed with ECHO 550 Acoustic Liquid Handler (Labcyte). After addition of compound treatment, cells are incubated for 24 hours at 37° C. (5% CO2, humidified). After the 24-hour treatment, plates are allowed to equilibrate to room temperature for 10 minutes. Using Dragonfly Automated Liquid Handler (TTP LabTech), 20 μl of HiBit lytic assay reagent (Promega, product #N3040), which is prepared according to manufacturer's instructions, is added to each well. The plates are rotated at room temperature for 2 minutes and incubated for 1 hour at 25° C. before luminescent signal is acquired using an EnVision Multimode Plate Reader (PerkinElmer).
Results are presented below in Table 5 for ABCB4 WT.
For orientation: HiBiT is a short tag that completes a luciferase, so light tracks the accessible tagged protein.

Another assay has as its target T2, ABCA4 P1380L (Homo sapiens, UniProt P78363, P1380L).
T2 construct: expressed in transfected cells
Description: A4 correction dose-response assay: ABCA4 P1380L HiBit protein expression. The conditions noted are these: HEK-293 cells stably expressing HiBit-tagged ABCA4 P1380L; 24 h treatment; top concentration 30 μM; read-out: ABCA4 P1380L EC50, Emax. Here is the method:
Exemplary compounds were evaluated in an A4 correction dose-response assay.
To assess activity against ABCA4 P1380L, the compounds were screened in an assay measuring protein expression, using cells transfected with cDNA encoding HiBit-tagged ABCA4 P1380L. Here we describe an assay for measuring the expression of the P1380L variant of human ABCA4 (henceforth referred to as ABCA4 P1380L) and the use of this assay to measure the efficacy of compounds to increase the expression of ABCA4 P1380L. The assay was designed to characterize the efficacy and potency of compounds to increase the expression of ABCA4 P1380L by calculating an Emax and EC50 value. […] (5% CO2, humidified). […] After the four-hour incubation period, 60 nL of DMSO solutions are transferred to the assay plate.
as §2

The next assay has as its target T3, ABCD2 WT (Homo sapiens, UniProt Q9UBJ2).
T3 construct: expressed in transfected cells
T3 sequence (Q9UBJ2 1-740): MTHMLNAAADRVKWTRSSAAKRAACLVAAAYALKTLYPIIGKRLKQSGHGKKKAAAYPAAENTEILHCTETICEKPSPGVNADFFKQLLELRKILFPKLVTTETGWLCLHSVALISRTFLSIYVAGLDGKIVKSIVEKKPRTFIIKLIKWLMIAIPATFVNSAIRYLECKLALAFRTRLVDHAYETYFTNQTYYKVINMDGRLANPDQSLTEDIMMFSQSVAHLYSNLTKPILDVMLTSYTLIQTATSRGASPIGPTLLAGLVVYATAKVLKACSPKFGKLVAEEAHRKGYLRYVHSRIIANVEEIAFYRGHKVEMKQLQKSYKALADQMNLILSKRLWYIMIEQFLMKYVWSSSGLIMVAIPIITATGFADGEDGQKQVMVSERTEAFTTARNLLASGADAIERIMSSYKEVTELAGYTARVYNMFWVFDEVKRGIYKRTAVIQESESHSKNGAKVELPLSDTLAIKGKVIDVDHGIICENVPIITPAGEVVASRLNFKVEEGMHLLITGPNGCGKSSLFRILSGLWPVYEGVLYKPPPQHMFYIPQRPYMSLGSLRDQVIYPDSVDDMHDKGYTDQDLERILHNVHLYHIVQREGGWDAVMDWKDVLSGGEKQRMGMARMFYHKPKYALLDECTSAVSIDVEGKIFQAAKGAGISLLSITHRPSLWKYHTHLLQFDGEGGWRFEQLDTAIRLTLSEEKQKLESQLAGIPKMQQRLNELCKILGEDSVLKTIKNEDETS
Description: D2 correction dose-response assay: ABCD2 WT HiBit protein expression. The settings on record: HEK-293/ABCD2 WT cells, 24 hours treatment, HiBit luminescence; class combines EC50 and Mean MaxAct (fold); read-out: ABCD2 WT EC50, Emax. Here is the method:
Exemplary compounds were evaluated in a D2 correction dose-response assay.
as §1, with “To assess activity against ABCD2, the compounds were screened in an assay measuring protein expression, using cells transfected with cDNA encoding HiBit-tagged ABCD2 wild-type. Here we describe” for “Described here is”, “ABCD2” for “ABCB4”, “(HEK-293/ABCD2” for “(HEK-293/ABCB4”, “HEK-293/ABCD2” for “HEK-293/ABCB4”
as §2

T2 sequence (P78363 whole entry P1380L): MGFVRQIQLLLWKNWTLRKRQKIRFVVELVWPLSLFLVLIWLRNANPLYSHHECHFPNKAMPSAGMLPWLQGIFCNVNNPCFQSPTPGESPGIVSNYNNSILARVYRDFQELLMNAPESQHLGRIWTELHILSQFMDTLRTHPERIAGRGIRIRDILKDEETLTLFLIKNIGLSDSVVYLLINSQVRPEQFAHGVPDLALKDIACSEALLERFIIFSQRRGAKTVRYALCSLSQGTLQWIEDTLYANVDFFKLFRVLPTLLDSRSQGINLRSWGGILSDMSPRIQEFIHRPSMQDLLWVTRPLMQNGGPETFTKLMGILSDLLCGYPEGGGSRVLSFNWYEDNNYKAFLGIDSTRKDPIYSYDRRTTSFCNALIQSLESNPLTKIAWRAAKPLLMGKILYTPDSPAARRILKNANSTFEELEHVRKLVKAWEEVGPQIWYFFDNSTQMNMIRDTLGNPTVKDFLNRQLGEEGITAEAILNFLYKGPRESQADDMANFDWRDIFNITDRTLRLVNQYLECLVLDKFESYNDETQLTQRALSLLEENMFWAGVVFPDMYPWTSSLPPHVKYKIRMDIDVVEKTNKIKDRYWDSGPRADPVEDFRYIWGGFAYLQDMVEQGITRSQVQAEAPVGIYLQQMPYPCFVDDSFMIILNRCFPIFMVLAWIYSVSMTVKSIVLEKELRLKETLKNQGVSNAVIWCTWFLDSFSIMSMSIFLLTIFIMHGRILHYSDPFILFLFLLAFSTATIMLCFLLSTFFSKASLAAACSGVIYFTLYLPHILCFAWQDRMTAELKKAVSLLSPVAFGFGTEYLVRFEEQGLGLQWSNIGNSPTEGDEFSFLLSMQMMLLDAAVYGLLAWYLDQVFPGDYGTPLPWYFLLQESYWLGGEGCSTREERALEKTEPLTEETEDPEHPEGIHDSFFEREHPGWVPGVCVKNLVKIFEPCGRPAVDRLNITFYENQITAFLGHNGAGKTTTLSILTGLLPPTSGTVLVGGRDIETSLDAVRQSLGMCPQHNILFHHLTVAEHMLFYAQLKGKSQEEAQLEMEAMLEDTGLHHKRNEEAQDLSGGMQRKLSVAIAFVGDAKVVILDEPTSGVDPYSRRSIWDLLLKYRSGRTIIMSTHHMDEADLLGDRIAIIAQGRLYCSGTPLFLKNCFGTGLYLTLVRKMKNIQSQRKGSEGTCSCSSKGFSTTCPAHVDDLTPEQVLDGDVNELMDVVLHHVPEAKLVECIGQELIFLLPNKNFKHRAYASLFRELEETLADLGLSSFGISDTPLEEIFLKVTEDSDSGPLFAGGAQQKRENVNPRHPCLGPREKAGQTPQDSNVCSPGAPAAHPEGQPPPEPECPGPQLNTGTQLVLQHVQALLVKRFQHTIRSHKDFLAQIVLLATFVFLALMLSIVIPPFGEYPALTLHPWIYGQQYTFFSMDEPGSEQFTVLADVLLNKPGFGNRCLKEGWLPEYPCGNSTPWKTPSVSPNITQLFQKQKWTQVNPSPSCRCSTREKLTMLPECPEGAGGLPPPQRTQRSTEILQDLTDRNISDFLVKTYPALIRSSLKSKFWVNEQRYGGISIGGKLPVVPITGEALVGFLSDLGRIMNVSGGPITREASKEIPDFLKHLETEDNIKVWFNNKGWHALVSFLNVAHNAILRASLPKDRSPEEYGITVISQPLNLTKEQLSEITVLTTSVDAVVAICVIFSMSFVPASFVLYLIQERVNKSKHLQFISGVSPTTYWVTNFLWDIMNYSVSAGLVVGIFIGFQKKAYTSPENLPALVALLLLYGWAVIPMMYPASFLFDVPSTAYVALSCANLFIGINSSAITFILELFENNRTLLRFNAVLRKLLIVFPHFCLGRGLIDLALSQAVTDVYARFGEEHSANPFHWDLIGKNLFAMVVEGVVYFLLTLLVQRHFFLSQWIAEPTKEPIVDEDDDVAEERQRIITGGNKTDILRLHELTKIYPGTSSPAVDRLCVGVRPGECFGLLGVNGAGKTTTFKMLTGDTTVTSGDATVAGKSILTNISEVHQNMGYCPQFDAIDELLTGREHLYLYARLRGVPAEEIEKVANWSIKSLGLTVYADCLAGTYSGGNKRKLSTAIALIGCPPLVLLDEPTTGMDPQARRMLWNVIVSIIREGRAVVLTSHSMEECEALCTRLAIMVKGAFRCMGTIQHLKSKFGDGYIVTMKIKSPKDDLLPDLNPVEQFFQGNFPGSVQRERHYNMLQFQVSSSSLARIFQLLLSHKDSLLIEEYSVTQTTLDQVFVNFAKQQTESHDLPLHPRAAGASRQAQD
T1 sequence (P21439 whole entry): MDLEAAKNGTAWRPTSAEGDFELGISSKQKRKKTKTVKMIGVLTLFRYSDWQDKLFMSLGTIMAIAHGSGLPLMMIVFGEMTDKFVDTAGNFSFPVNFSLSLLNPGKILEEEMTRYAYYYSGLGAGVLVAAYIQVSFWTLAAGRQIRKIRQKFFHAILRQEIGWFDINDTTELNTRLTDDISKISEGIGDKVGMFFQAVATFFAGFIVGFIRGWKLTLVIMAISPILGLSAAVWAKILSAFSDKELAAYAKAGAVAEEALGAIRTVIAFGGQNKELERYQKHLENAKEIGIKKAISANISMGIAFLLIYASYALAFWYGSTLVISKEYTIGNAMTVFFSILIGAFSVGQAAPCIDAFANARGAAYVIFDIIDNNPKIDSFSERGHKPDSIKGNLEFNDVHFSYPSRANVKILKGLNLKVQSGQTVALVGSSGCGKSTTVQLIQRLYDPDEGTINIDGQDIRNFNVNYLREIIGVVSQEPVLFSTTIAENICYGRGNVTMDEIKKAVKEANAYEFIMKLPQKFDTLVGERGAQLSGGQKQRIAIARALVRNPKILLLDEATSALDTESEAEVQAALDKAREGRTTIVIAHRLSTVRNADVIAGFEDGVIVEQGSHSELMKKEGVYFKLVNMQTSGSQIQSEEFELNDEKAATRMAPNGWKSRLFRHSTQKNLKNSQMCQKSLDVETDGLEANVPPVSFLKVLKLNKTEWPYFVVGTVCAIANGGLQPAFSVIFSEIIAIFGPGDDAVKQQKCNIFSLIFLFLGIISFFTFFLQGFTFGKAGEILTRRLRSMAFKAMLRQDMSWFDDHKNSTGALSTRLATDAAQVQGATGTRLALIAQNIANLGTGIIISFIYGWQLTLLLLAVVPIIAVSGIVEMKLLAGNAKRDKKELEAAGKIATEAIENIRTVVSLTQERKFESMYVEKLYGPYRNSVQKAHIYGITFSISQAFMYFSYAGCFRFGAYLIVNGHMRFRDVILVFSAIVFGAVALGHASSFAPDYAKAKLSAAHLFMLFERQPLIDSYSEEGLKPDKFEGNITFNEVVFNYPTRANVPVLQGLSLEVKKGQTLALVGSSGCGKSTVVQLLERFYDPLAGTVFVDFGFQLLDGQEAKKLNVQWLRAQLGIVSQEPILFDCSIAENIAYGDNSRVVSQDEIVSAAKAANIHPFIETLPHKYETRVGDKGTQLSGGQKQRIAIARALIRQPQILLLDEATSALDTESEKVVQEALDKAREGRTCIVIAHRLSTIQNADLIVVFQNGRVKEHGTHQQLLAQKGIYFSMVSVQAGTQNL

For `Cc1cc(C(F)(F)F)nc(C2CC2)c1Oc1nc(-c2cncc(C#N)c2)ccc1NS(C)(=O)=O` [Compound I-163], the figures for the EC50 at ABCB4 WT, on ABCA4 P1380L and at ABCD2 WT were below 1 µM, below 25 µM and below 1 µM, respectively.
With `Cc1nc(C)c(Oc2nc(-c3cncc(Cl)c3)ccc2NS(C)(=O)=O)c(C2CC2)n1` [Compound I-164], the EC50 on ABCB4 WT, at ABCA4 P1380L and at ABCD2 WT was 1 to 10 µM throughout.
For `Cc1cc(C(F)(F)F)nc(C2CC2)c1Oc1nc(-c2cncc(C#N)c2)ccc1N=S(C)(C)=O` [Compound I-286], the EC50 is at least 25 µM on ABCB4 WT, above 25 µM at ABCA4 P1380L and below 1 µM on ABCD2 WT.
`Cc1cc(C(F)(F)F)nc(C2CC2)c1Oc1nc(-c2cncc(C#N)c2)ccc1S(=N)(=O)C1CC1` (stereo not drawn) [Compound I-287]: the EC50 at ABCB4 WT was below 25 µM; at ABCA4 P1380L, above 25 µM; at ABCD2 WT it was above 25 µM.
`Cc1cc(C(F)F)nc(C2CC2)c1Oc1nc(-c2cncc(C#N)c2)ccc1S(=O)(=O)NC1CC1` [Compound I-288]: the EC50 at ABCB4 WT, on ABCA4 P1380L and on ABCD2 WT was 1 to 10 µM throughout.
Consider `CNS(=O)(=O)c1ccc(-c2cncc(C#N)c2)nc1Oc1c(C)cc(C(F)F)nc1C1CC1` [Compound I-289], for which the EC50 at ABCB4 WT is 10 to 25 µM; on ABCA4 P1380L it was above 25 µM; at ABCD2 WT it was 1 to 10 µM.
Regarding `Cc1cc(C(F)(F)F)nc(C2CC2)c1Oc1nc(-c2cncc(C#N)c2)ccc1S(=O)(=O)N1CCOCC1` [Compound I-290], the EC50 on ABCB4 WT is at least 25 µM; on ABCA4 P1380L it was above 25 µM; at ABCD2 WT, above 25 µM.
Consider `Cc1cc(C(F)(F)F)nc(C2CC2)c1Oc1nc(-c2cncc(C#N)c2)ccc1S(=O)(=O)N(C)C` [Compound I-291], for which the 50% effective concentration (EC50) was below 1 µM at ABCB4 WT, below 25 µM on ABCA4 P1380L and 1 to 10 µM at ABCD2 WT.
On to `Cc1nc(C(F)(F)F)nc(C2CC2)c1Oc1nc(-c2cncc(C#N)c2)ccc1S(=O)(=O)NC1CC1` [Compound I-292], for which the EC50 at ABCB4 WT, at ABCA4 P1380L and at ABCD2 WT was 1 to 10 µM throughout.
Consider `CNS(=O)(=O)c1ccc(-c2cncc(C#N)c2)nc1Oc1c(C)cc(C(F)(F)F)nc1C1CC1` [Compound I-293], for which the concentration for a half-maximal effect (EC50) on ABCB4 WT is below 1 µM; on ABCA4 P1380L, below 25 µM; at ABCD2 WT it was 1 to 10 µM.
As for `Cc1cc(C(F)(F)F)nc(C2CC2)c1Oc1nc(-c2cncc(C#N)c2)ccc1S(=O)(=O)Nc1cccnc1` [Compound I-294], the EC50 is 10 to 25 µM on ABCB4 WT, below 25 µM on ABCA4 P1380L and below 1 µM at ABCD2 WT.
For the molecule `Cc1cc(C(F)(F)F)nc(C2CC2)c1Oc1nc(-c2cccc(C#N)c2)ccc1S(=N)(=O)C1CC1` (stereo not drawn) [Compound I-295], the EC50 on ABCB4 WT was at least 25 µM; at ABCA4 P1380L it was below 25 µM; at ABCD2 WT it was 10 to 25 µM.
On the same counts, the results for `Cc1cc(C(F)(F)F)nc(C2CC2)c1Oc1nc(-c2cncc(C#N)c2)ccc1S(=N)(=O)c1cccnn1` (stereo not drawn) [Compound I-296] are below 1 µM, below 1 µM and below 1 µM.
For `Cc1cc(C(F)(F)F)nc(C2CC2)c1Oc1nc(-c2cncc(C#N)c2)ccc1S(=N)(=O)c1cnccn1` (stereo not drawn) [Compound I-297], the EC50 at ABCB4 WT, on ABCA4 P1380L and at ABCD2 WT was 1 to 10 µM each time.
In the case of `CNS(=O)(=O)c1ccc(-c2cncc(C#N)c2)nc1Oc1c(C)cc(C2CC2)nc1C1CC1` [Compound I-298], the EC50 was at least 25 µM at ABCB4 WT, above 25 µM on ABCA4 P1380L and 1 to 10 µM on ABCD2 WT.
As for `Cc1sc(C2CC2)nc1Oc1nc(-c2cncc(C#N)c2)ccc1NS(C)(=O)=O` [Compound I-299], the EC50 on ABCB4 WT, at ABCA4 P1380L and at ABCD2 WT was below 1 µM throughout.
As to `Cc1nc(Oc2nc(-c3cncc(C#N)c3)ccc2NS(C)(=O)=O)c(C2CC2)s1` [Compound I-300], the EC50 on ABCB4 WT was below 1 µM; on ABCA4 P1380L it was below 25 µM; at ABCD2 WT it was below 1 µM.
`Cc1cc(C(F)(F)F)nc(C2CC2)c1Oc1nc(-c2cncc(C#N)c2)ccc1S(=N)(=O)C1CCOCC1` (stereo not drawn) [Compound I-301]: the EC50 at ABCB4 WT is at least 25 µM; on ABCA4 P1380L, below 25 µM; at ABCD2 WT it was 10 to 25 µM.
Regarding `Cc1cc(C(F)(F)F)nc(C2CC2)c1Oc1nc(-c2cncc(C#N)c2)ccc1S(=N)(=O)c1ccccn1` (stereo not drawn) [Compound I-302], the EC50 on ABCB4 WT is 10 to 25 µM; on ABCA4 P1380L it was above 25 µM; at ABCD2 WT, 10 to 25 µM.
Consider `Cc1nc(C(F)(F)F)nc(C2CC2)c1Oc1nc(-c2cncc(C#N)c2)ccc1S(=N)(=O)C1CC1` (stereo not drawn) [Compound I-303], for which the EC50 is at least 25 µM at ABCB4 WT, above 25 µM at ABCA4 P1380L and above 25 µM on ABCD2 WT.
For the molecule `Cc1cc(C(F)(F)F)nc(C2CC2)c1Oc1nc(-c2cncc(C#N)c2)ccc1S(=N)(=O)c1cccnc1` (stereo not drawn) [Compound I-304], the EC50 at ABCB4 WT was 1 to 10 µM; on ABCA4 P1380L it was 1 to 10 µM; on ABCD2 WT, below 1 µM.
Take `Cc1cc(C(F)(F)F)nc(C2CC2)c1Oc1nc(-c2cncc(C#N)c2)ccc1S(=O)(=O)NC1COC1` [Compound I-305]: the results for the EC50 on ABCB4 WT, at ABCA4 P1380L and at ABCD2 WT were at least 25 µM, above 25 µM and 1 to 10 µM, respectively.
Turning to `Cc1cc(C(F)(F)F)nc(C2CC2)c1Oc1nc(-c2cncc(C#N)c2)ccc1S(=O)(=O)NC1CCOCC1` [Compound I-306], the results for the EC50 on ABCB4 WT, on ABCA4 P1380L and at ABCD2 WT were at least 25 µM, below 25 µM and 1 to 10 µM, respectively.
